From US20250188082A1, “Use of Hypoxanthine Compound In Preparation of Drug For Treating Pulmonary Fibrosis” (Sichuan Yiasuo Pharmaceutical Technology Co., Ltd., priority 2022, published 2025) come the findings set out here.

SMILES strings stand for the structures.

This assay has as its system bleomycin-induced pulmonary fibrosis model. The assay can be described thus: Comparison with comparative drugs: bleomycin-induced model, hydroxyproline and TGF-β. The format is in vivo, C57BL/6 mice. As to conditions: 120 mg/kg/d intragastric, twice every day, 14 days, from two weeks after model; Day 15.
Consider `CC(C)n1cnc2c(=O)[nH]cnc21` [Compound E-1], for which the “Hydroxyproline in bronchoalveolar lavage fluids” value is 1.14 ± 0.16 µg/mg, the “Hydroxyproline in lung tissues” value amounted to 2.18 ± 0.32 µg/mg, the “TGF-β in bronchoalveolar lavage fluids” value turned out to be 6.51 ± 0.24 µg/L and the “TGF-β in lung tissues” value is 63.95 ± 2.19 µg/L.
Turning to `CC(C)n1cnc2[nH]cnc2c1=O` [Compound E-2], the “Hydroxyproline in bronchoalveolar lavage fluids” value is 1.16 ± 0.28 µg/mg, the “Hydroxyproline in lung tissues” value was 1.93 ± 0.24 µg/mg, the “TGF-β in bronchoalveolar lavage fluids” value is 6.21 ± 0.24 µg/L and the “TGF-β in lung tissues” value was determined as 66.56 ± 1.95 µg/L.
As for `CC(C)n1cnc2c(ncn2C(C)C)c1=O` [Compound E-3], the “Hydroxyproline in bronchoalveolar lavage fluids” value turned out to be 1.03 ± 0.29 µg/mg, the “Hydroxyproline in lung tissues” value was 2.15 ± 0.23 µg/mg, the “TGF-β in bronchoalveolar lavage fluids” value stood at 6.35 ± 0.28 µg/L and the “TGF-β in lung tissues” value came out at 62.54 ± 1.28 µg/L.
Regarding `CC(C)n1cnc2c(=S)[nH]cnc21` [Compound E-4], the “Hydroxyproline in bronchoalveolar lavage fluids” value was found to be 1.14 ± 0.18 µg/mg, the “Hydroxyproline in lung tissues” value came out at 1.98 ± 0.44 µg/mg, the “TGF-β in bronchoalveolar lavage fluids” value is 6.84 ± 0.95 µg/L and the “TGF-β in lung tissues” value came to 63.58 ± 2.95 µg/L.
The matching figures for `CC(C)n1cnc2[nH]cnc2c1=S` [Compound E-5]: 1.17 ± 0.16 µg/mg, 2.15 ± 0.35 µg/mg, 6.51 ± 0.86 µg/L and 65.82 ± 3.54 µg/L.
The matching figures for `CC(C)n1cnc2c(=O)n(C)cnc21` [Compound E-6]: 1.18 ± 0.15 µg/mg, 2.35 ± 0.24 µg/mg, 6.14 ± 0.85 µg/L and 63.56 ± 6.54 µg/L.
Turning to `CC(C)n1cnc2c(=N)[nH]cnc21` [Compound E-7], the “Hydroxyproline in bronchoalveolar lavage fluids” value stood at 1.15 ± 0.18 µg/mg, the “Hydroxyproline in lung tissues” value came to 1.99 ± 0.25 µg/mg, the “TGF-β in bronchoalveolar lavage fluids” value amounted to 6.38 ± 0.95 µg/L and the “TGF-β in lung tissues” value is 68.25 ± 2.58 µg/L.
On to `CC(C)n1cnc2[nH]cnc2c1=N` [Compound E-8], for which the “Hydroxyproline in bronchoalveolar lavage fluids” value is 1.06 ± 0.19 µg/mg, the “Hydroxyproline in lung tissues” value stood at 2.03 ± 0.51 µg/mg, the “TGF-β in bronchoalveolar lavage fluids” value came to 6.51 ± 0.58 µg/L and the “TGF-β in lung tissues” value turned out to be 68.54 ± 2.25 µg/L.
The matching figures for `CC(C)n1cnc2c(ncn2C(C)C)c1=S` [Hypoxanthine analogue D]: 1.94 ± 0.13 µg/mg, 2.15 ± 0.35 µg/mg, 6.42 ± 1.02 µg/L and 93.36 ± 8.51 µg/L.
